In assay [1] the target is T1, MRK (Homo sapiens, UniProt Q9NYL2). In words: Inhibition of endogenous MRK activity induced by radiation in medulloblastoma cells. Format: cell-based. Details: endogenous in cells; host or cells: UW228 medulloblastoma cells. How it is done:
FIG. 7. Inhibition of IR-induced signaling downstream of MRK by M443. […] One hour after IR treatment, cells were harvested and cell lysates were tested by western blot for the activities of MRK, p38 and Chk2 proteins using the respective phospho-specific antibodies.

In assay [2] the test system is Chk2. Nature of the assay: IR-induced signaling downstream of MRK, phospho-Chk2 western blot. Type of assay: cell-based. As to conditions: UW228 cells, 500 nM M443 6 hours, 1 hour after IR. As for the experimental part:
(§1) FIG. 7. Inhibition of IR-induced signaling downstream of MRK by M443. UW228 medulloblastoma cells were treated with 500 nM of M443 or with vehicle for 6 hours, and then exposed to IR or not. One hour after IR treatment, cells were harvested and cell lysates were tested by western blot for the activities of MRK, p38 and Chk2 proteins using the respective phospho-specific antibodies.
(§2) By inhibiting MRK activity, M443 was expected to reduce signal transduction downstream of MRK. […] Thus, M443 inhibits MRK activation by IR and its downstream signaling events, which leads to loss of cell viability after exposure to IR.
In general terms: A western blot detects proteins with antibodies after separation by electrophoresis.

In assay [3] the test system is UW228 medulloblastoma cells. In words: Colony formation assay with radiation. Format: cell-based. The settings on record: 6 hours M443 before radiation, colonies counted after 7 days. How it is done: FIG. 6. M443 sensitizes UW228 medulloblastoma cells to radiation. UW228 cells were seeded for the colony formation assay at 500 cells/dish. The following day, they were treated for 6 hours with the indicated doses of M443 and then exposed to different doses of radiation. After incubation at 37° C. for 7 days, colonies larger than 50 cells were counted.

Assay [4] concerns IMB226 medulloblastoma cells. Nature of the assay: Animal model of medulloblastoma, orthotopic implantation, survival. Format: in vivo, nude mice. As for the experimental part: FIG. 9. Kaplan-Meier survival curve. Three weeks after implantation of IMB226 medulloblastoma cells in nude mice, animals were randomized into 4 groups of 12 mice for each treatment. M443 or the vehicle were delivered directly into the tumor via an ALZET pump.
The effect of M443 was tested in an animal model of medulloblastoma that employs orthotopic implantation of IMB226 medulloblastoma cells in nude mice. M443 was administered directly into the tumor using an osmotic pump that is connected to a catheter implanted into the brain in order to bypass the blood-brain barrier.

In assay [5] the test system is p38. In words: IR-induced signaling downstream of MRK, phospho-p38 western blot. Format: cell-based. As to conditions: UW228 cells, 500 nM M443 6 hours, 1 hour after IR. How it is done:
as §1, §2

The target of assay [6] is T2, BCR-Abl (Homo sapiens, UniProt P00519).
T2 construct: BCR (N-terminal fusion partner, P11274); endogenous in cells; host or cells: K562; the other entry of the earlier key: BCR (P11274, Breakpoint cluster region protein)
In words: BCR-Abl activity in K562 cells, western blot. Type of assay: cell-based. As to conditions: 1 μM, 6 hours. As for the experimental part:
(§3) FIG. 11. M443 inhibits MRK activity, but not BCR-Abl. K562 cells were treated with DMSO, 1 μM Nilotinib or 1 μM M443 for 6 hours and then they were processed for western blot with the indicated antibodies.

The subject of assay [7] is 4T1 breast cancer cells. Nature of the assay: MTT cell viability after X-ray irradiation. Type of assay: cell-based. The settings on record: 4T1 cells, M443 6 hours before irradiation, MTT 72 hours after. How it is done: FIG. 8. […] 4T1 breast cancer cells were plated in 96-well plates (750 cells per well/8 wells per condition) and treated with M443 at the indicated concentrations 6 hours before irradiating at the indicated dosages. 72 hours after irradiation MTT solution (1.25 μg/μl) was added to all wells and incubated for an additional 3 hours before cell viability/mitochondrial activity was analyzed. Shown are the means+/−SD of 8 replicate wells.

Assay [8] has as its target T1, MRK. Nature of the assay: MRK activity in K562 cells, western blot. Type of assay: cell-based. Details: endogenous in cells. As to conditions: 1 μM, 6 hours. How it is done: as §3
Assay [9] concerns MRK. Nature of the assay: Inhibition of MRK in vivo, brain lysates western blot. The settings on record: 18 hours after pump implantation. More on the design: species or system nude mice. As for the experimental part: FIG. 10. Inhibition of MRK in vivo. Brains from control and M443-treated animals were harvested 18 hours after pump implantation. Each cerebellum was dissected from the rest of the brain and divided into left (L) and right (R), top (T) and bottom (B) portions. Brain lysates were tested for MRK activity by western blotting. Human HLA (hu-HLA) was used to identify the brain portions containing tumor cells of human origin. Tubulin was used as loading control.
To confirm that M443 administered into the brain inhibited MRK, brain extracts were obtained 18 hours after pump implantation, and MRK activity determined. […] The hu-HLA signal indicates the presence of tumor in the treated sample (lane 5).

Assay [10] relates to c-Abl. Nature of the assay: c-Abl activity in brain lysates, phospho-Abl western blot. Type of assay: in vivo, nude mice. The settings on record: treated versus untreated tumor. As for the experimental part: M443 is a derivative of nilotinib, an inhibitor of the BCR-Abl oncogene. To examine the specificity of M443, the activity of c-Abl was also determined, by blotting the brain lysates with a phospho-Abl-(P-c-Abl) specific antibody. […] As Abl is known to respond to stress, the increase in P-c-Abl may be caused by M443-induced cell stress.

In assay [11] the test system is MRK. In words: Irreversible inhibition of MRK activity after washout (P-MRK western blot). As to conditions: cells expressing activatable MRK construct, pretreated 6 hours, washed, then homodimerizing drug. Type of assay: cell-based. How it is done: FIG. 5. M443 inhibits MRK activity in an irreversible fashion. Cells expressing an activatable MRK construct were pretreated with the indicated inhibitors for 6 hours, then they were washed with PBS 3 times, incubated for 15 minutes, washed once more and after 15 minutes they were treated with the homodimerizing drug to activate MRK. Cell lysates were western blotted with the P-MRK antibody to detect active MRK (top blot). Histograms are data from quantified P-MRK bands from three independent experiments.

Assay [12] addresses T1, MRK. More on the design: endogenous in cells; host or cells: UW228 medulloblastoma cells. As to conditions: reference (6); cited from earlier work.

Each structure is given as a SMILES string.

T1 sequence (Q9NYL2 whole entry): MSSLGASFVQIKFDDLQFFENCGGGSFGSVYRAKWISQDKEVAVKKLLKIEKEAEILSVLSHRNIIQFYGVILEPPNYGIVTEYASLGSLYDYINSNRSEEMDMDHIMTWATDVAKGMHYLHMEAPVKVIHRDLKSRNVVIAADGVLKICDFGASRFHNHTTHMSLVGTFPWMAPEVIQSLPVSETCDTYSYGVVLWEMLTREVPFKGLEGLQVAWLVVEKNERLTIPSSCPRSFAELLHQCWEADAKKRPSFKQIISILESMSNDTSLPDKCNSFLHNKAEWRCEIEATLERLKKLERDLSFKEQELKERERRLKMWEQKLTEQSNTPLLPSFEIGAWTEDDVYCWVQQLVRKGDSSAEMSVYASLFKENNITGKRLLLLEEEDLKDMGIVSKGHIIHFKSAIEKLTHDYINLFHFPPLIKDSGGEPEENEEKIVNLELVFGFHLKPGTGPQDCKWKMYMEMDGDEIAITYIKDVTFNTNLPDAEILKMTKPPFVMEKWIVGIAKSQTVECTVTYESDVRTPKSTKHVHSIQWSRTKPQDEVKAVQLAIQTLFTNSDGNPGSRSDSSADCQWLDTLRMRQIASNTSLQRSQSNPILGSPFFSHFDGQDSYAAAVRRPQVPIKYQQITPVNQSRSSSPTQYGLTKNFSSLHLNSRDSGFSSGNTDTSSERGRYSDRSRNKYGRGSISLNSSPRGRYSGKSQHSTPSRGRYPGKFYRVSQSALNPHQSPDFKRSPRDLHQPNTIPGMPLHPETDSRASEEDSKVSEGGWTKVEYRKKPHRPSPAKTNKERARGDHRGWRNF
T2 sequence (P00519 with tags, fused parts or gaps): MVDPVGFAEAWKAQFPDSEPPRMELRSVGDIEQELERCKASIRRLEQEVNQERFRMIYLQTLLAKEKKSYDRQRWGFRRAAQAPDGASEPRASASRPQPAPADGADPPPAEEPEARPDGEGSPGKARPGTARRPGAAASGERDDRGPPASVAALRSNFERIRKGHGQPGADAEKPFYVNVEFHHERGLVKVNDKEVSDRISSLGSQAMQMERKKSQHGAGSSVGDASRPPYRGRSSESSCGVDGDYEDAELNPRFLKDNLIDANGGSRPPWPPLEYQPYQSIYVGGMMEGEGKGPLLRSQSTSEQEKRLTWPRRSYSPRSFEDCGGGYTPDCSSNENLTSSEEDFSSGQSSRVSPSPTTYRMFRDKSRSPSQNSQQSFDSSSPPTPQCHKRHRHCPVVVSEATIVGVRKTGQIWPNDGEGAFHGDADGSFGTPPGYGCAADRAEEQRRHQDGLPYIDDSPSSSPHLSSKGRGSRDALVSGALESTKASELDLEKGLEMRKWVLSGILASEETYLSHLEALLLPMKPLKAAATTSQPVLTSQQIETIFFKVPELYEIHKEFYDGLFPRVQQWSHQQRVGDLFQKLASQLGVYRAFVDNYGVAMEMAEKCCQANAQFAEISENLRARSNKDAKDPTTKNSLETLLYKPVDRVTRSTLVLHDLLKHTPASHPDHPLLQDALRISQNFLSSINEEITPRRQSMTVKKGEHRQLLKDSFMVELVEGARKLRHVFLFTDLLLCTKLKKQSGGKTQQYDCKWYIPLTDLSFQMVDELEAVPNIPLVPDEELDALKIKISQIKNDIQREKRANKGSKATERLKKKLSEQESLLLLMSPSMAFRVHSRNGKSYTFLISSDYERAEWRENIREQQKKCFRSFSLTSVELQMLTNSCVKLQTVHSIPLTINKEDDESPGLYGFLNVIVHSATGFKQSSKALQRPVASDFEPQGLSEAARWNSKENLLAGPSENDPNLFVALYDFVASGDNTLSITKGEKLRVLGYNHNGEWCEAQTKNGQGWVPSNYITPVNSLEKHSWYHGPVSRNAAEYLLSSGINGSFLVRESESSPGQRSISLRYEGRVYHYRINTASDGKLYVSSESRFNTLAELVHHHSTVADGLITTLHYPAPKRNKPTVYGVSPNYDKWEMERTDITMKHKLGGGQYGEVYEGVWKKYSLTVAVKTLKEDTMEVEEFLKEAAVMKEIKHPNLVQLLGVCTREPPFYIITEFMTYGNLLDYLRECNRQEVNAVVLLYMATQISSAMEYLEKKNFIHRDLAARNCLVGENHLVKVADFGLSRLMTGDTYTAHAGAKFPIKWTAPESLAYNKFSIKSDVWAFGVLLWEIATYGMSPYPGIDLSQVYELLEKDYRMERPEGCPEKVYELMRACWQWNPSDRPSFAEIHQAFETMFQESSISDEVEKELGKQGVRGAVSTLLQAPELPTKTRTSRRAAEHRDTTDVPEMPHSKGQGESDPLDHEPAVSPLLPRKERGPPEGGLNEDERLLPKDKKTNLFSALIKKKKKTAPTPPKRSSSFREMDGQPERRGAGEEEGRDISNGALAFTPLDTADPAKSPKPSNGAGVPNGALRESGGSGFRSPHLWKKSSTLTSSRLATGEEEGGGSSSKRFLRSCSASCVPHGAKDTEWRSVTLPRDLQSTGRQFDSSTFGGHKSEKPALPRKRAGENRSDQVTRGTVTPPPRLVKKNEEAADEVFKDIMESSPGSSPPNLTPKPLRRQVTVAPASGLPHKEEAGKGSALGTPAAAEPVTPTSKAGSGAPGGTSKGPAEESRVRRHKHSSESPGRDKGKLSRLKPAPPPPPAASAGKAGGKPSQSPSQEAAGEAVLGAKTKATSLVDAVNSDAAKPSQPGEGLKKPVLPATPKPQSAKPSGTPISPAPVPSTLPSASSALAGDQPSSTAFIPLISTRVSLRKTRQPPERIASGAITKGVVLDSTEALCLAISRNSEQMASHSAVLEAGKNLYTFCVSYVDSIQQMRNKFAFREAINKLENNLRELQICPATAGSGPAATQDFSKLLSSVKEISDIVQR

As for `C=CC(=O)N1CCCC(c2ccnc(Nc3cc(C(=O)Nc4cc(-n5cnc(C)c5)cc(C(F)(F)F)c4)ccc3C)n2)C1` (stereo not shown) [M443], the 50% inhibitory concentration (IC50) in assay [1] was roughly 0.125 µM. Also, the “activation of Chk2 by ionizing radiation” value in assay [2] is given as “greatly reduced”. The “sensitization to killing by radiation (colony formation)” value in assay [3] is “strongly sensitized”. Further, the “survival benefit, M443 on its own” value in assay [4] (IMB226 orthotopic in nude mice, M443 into the tumor via osmotic pump, no IR) stood at 5 days. In addition, the “increase in survival, combination of M443 and IR” value in [4] (IMB226 orthotopic in nude mice, M443 into the tumor via osmotic pump, plus IR) turned out to be 16 days. Moreover, the tumor hemorrhage entry in assay [4] (M443-treated tumors) is “less hemorrhagic”. For the same compound, the “radiosensitization effect on survival” value in assay [4] (p<0.0029, 2×2 factorial Cox model) was “very significant radiosensitization effect”. Further, the “activation of p38 by ionizing radiation” value in [5] is given as “greatly reduced”. In addition, the “inhibition of BCR-Abl in K562 cells” value in assay [6] is recorded as “does not inhibit BCR-Abl”. Moreover, the “sensitization to X-ray irradiation (MTT viability)” value in assay [7] is reported as “sensitizes breast cancer cells to X-ray irradiation”. For the same compound, in assay [8], the “inhibition of MRK activity in K562 cells” value was “as efficient as nilotinib”. Besides, in assay [9], the “P-MRK signal in brain lysates” value is “none of the fractions from the M443-treated animal had a detectable signal for P-MRK” and the “total MRK levels in tumors” value was “strongly decreased”. In addition, the “P-c-Abl signal in brain lysates” value in assay [10] is given as “somewhat increased”. Also, the “inhibition of MRK activity (P-MRK) after washout” value in assay [11] is listed as “effectively inhibits MRK in an irreversible fashion”.

As for `Cc1cn(-c2cc(NC(=O)c3ccc(C)c(Nc4nccc(-c5cccnc5)n4)c3)cc(C(F)(F)F)c2)cn1` [nilotinib], the “binding to MRK” value in [12] was “binds strongly to MRK”.

What is called IC50 is the concentration that inhibits the measured activity by half.

(Values after patent publication US10144723B2, “Treatment of solid tumors by inhibiting MRK/ZAK” (The Feinstein Institute For Medical Research, priority 2014, dated 2018).)
